From ChEMBL document CHEMBL3243930 (J Med Chem, 1979)
≈ marks a conversion by molar mass, not a printed value.

Tests used:
[1] = test system: KB; test: Cytotoxicity against human KB cells; format: functional; settings: read-out: ED50 (the source's name)
[2] = test system: KB; test: Potency index, ratio of ED50 for MTX to ED50 for compound against human KB cells; format: functional
[3] = test system: Columba livia; test: Potency index, ratio of I50 for MTX to I50 for compound against pigeon liver dihydrofolate reductase
[4] = Inhibition of pigeon liver dihydrofolate reductase; parameters: species or system Columba livia; settings: read-out: I50
[5] = test system: L1210; test: Antitumor activity against mouse L1210 cells […] in mouse assessed as increase in life span at 500 mg/kg, ip qd from day 1 to day 9 relative to control; format: functional; settings: route intraperitoneal
[6] = test system: L1210; test: Antitumor activity against mouse L1210 cells […] in mouse assessed as increase in life span at 10 mg/kg, ip qd from day 1 to day 9 relative to control; format: functional; settings: route intraperitoneal
[7] = test system: L1210; test: Antitumor activity against mouse L1210 cells […] in mouse assessed as increase in life span at 1.3 mg/kg, ip qd from day 1 to day 9 relative to control; format: functional; settings: route intraperitoneal
[8] = test system: L1210; test: Antitumor activity against mouse L1210 cells […] in mouse assessed as increase in life span at 200 mg/kg, ip qd from day 1 to day 9 relative to control; format: functional; settings: route intraperitoneal
[9] = test system: L1210; test: Antitumor activity against mouse L1210 cells […] in mouse assessed as increase in life span at 0.44 mg/kg, ip qd from day 1 to day 9 relative to control; format: functional; settings: route intraperitoneal
[10] = Dissociation constant, pKa of the compound; format: physicochemical
[11] = test system: L1210; test: Antitumor activity against mouse L1210 cells […] in mouse assessed as increase in life span at 200 mg/kg, ip qd administered on day 2 and day 6 relative to control; format: functional; settings: route intraperitoneal
[12] = test system: L1210; test: Antitumor activity against mouse L1210 cells […] in mouse assessed as increase in life span at 20 mg/kg, ip qd from day 1 to day 9 relative to control; format: functional; settings: route intraperitoneal
[13] = test system: L1210; test: Antitumor activity against mouse L1210 cells […] in mouse assessed as increase in life span at 1.5 mg/kg, ip qd from day 1 to day 9 relative to control; format: functional; settings: route intraperitoneal
[14] = test system: L1210; test: Antitumor activity against mouse L1210 cells […] in mouse assessed as increase in life span at 100 mg/kg, ip qd from day 1 to day 9 relative to control; format: functional; settings: route intraperitoneal
[15] = test system: HEp-2; test: Potency index, ratio of ED50 for MTX to ED50 for compound against human Hep2 cells; format: functional
[16] = Cytotoxicity against human Hep2 cells; format: functional; settings: HEp-2, read-out: ED50 (the source's name)
[17] = test system: L1210; test: Antitumor activity against mouse L1210 cells […] in mouse assessed as increase in life span at 0.67 mg/kg, ip qd from day 1 to day 9 relative to control; format: functional; settings: route intraperitoneal
[18] = test system: L1210; test: Antitumor activity against mouse L1210 cells […] in mouse assessed as increase in life span at 25 mg/kg, ip qd from day 1 to day 9 relative to control; format: functional; settings: route intraperitoneal
[19] = test system: L1210; test: Antitumor activity against mouse L1210 cells […] in mouse assessed as increase in life span at 50 mg/kg, ip qd from day 1 to day 9 relative to control; format: functional; settings: route intraperitoneal

Row | SMILES | EC50 [1] | Ratio ED50 [2] | Ratio [3] | IC50 [4] | other results
1 | Nc1nc(N)c2nc(CNc3ccc(CC(=O)N[C@@H](CCC(=O)O)C(=O)O)cc3)cnc2n1 | 41 µg/mL (≈ 90.2 µM) | 10000 | 15 | 380 nM | ILS at 500 mg/kg [5]: 35%
2 | CCN(Cc1cnc2nc(N)nc(N)c2n1)c1ccc(C(=O)N[C@@H](CCC(=O)O)C(=O)O)cc1 | 0.005 µg/mL (≈ 0.0107 µM) | 1.3 | 1 | 45 nM | ILS at 10 mg/kg [6]: 117%
3 | Nc1nc(N)c2nc(COc3ccc(C(=O)N[C@@H](CCC(=O)O)C(=O)O)cc3)cnc2n1 | 3.5 µg/mL (≈ 7.93 µM) | 875 | 20 | 510 nM | ILS at 1.3 mg/kg [7]: 32%
4 | Nc1nc(N)c2nc(CNc3ccc(CC(=O)N[C@@H](CC(=O)O)C(=O)O)cc3)cnc2n1 | > 100 µg/mL | – | 38 | 1000 nM | ILS at 200 mg/kg [8]: 29%
5 | Nc1nc(N)c2nc(CNc3ccc(C(=O)N[C@@H](CCC(=O)O)C(=O)O)nc3)cnc2n1 | 0.006 µg/mL (≈ 0.0136 µM) | 1.5 | 1.2 | 30 nM | ILS at 0.44 mg/kg [9]: 69%
6 | Nc1nc(N)c2nc(CN(c3ccccc3)c3ccc(C(=O)N[C@@H](CCC(=O)O)C(=O)O)cc3)cnc2n1 | 26 µg/mL (≈ 50.3 µM) | 6500 | 11 | 280 nM | –
7 | CN(Cc1cnc2nc(N)c([N+](=O)[O-])c(N)c2n1)c1ccc(C(=O)N[C@@H](CCC(=O)O)C(=O)O)cc1 | > 100 µg/mL | – | 1400 | 38000 nM | pKa [10]: 4.3; ILS at 200 mg/kg [11]: 1%
8 | Nc1nc(N)c2nc(CNc3ccc(CCC(=O)N[C@@H](CCC(=O)O)C(=O)O)cc3)cnc2n1 | 37 µg/mL (≈ 79 µM) | 9300 | 33 | 460 nM | ILS at 500 mg/kg [5]: 1%
9 | Nc1nc(N)c2nc(CN(Cc3ccccc3)c3ccc(C(=O)N[C@@H](CCC(=O)O)C(=O)O)cc3)cnc2n1 | > 100 µg/mL | – | 310 | 14000 nM | –
10 | Nc1nc(N)c2nc(CNc3ccc(C(=O)NC(CCCCC(=O)O)C(=O)O)cc3)cnc2n1 (stereo unspecified) | 0.025 µg/mL (≈ 0.0534 µM) | 6.3 | 0.5 | 13 nM | ILS at 20 mg/kg [12]: 57%
11 | CN(Cc1cnc2nc(N)c(Br)c(N)c2n1)c1ccc(C(=O)N[C@@H](CCC(=O)O)C(=O)O)cc1 | 76 µg/mL (≈ 143 µM) | 19000 | 190 | 2500 nM | pKa [10]: 5.1; ILS at 200 mg/kg [11]: 1%
12 | CN(Cc1cnc2nc(N)nc(N)c2n1)c1ccc(C(=O)N[C@@H](CCC(=O)O)C(=O)O)cc1 [METHOTREXATE] | 0.004 µg/mL (≈ 0.0088 µM) | – | – | 26 nM | ILS at 1.5 mg/kg [13]: 72%
13 | CCN(Cc1cnc2nc(N)nc(N)c2n1)c1c(Cl)cc(C(=O)N[C@@H](CCC(=O)O)C(=O)O)cc1Cl | 0.022 µg/mL (≈ 0.0409 µM) | 5.5 | 1.1 | 50 nM | ILS at 100 mg/kg [14]: 70%
14 | CN(Cc1cnc2nc(N)cc(N)c2n1)c1ccc(C(=O)N[C@@H](CCC(=O)O)C(=O)O)cc1 | – | – | 4.8 | 63 nM | Ratio ED50 [15]: 13; EC50 [16]: 0.05 µg/mL (≈ 0.11 µM); ILS at 100 mg/kg [14]: 64%
15 | Nc1nc(N)c2nc(CNc3ccc(C(=O)N[C@@H](CCC(=O)O)C(=O)O)cc3)cnc2n1 [AMINOPTERIN] | 0.003 µg/mL (≈ 0.00681 µM) | 0.75 | 1 | 26 nM | ILS at 0.67 mg/kg [17]: 74%
16 | Nc1nc(N)c2nc(CNc3ccc(S(=O)(=O)N[C@@H](CCC(=O)O)C(=O)O)cc3)cnc2n1 | 45 µg/mL (≈ 94.4 µM) | 11000 | 39 | 1100 nM | ILS at 100 mg/kg [14]: 27%
17 | Nc1nc(N)c2nc(CNc3ccc(C(=O)NCC(=O)O)cc3)cnc2n1 | 88 µg/mL (≈ 239 µM) | 22000 | 42 | 1100 nM | –
18 | Nc1nc(N)c2nc(CNc3ccc(C(=O)NCCCC(=O)O)cc3)cnc2n1 | > 100 µg/mL | – | 15 | 380 nM | ILS at 25 mg/kg [18]: 1%
19 | CN(Cc1ccc(C(=O)N[C@@H](CCC(=O)O)C(=O)O)cc1)Cc1cnc2nc(N)nc(N)c2n1 | 0.043 µg/mL (≈ 0.0918 µM) | 11 | 29 | 750 nM | ILS at 50 mg/kg [19]: 36%
20 | CN(CCCCC(=O)N[C@@H](CCC(=O)O)C(=O)O)Cc1cnc2nc(N)nc(N)c2n1 | > 100 µg/mL | – | 770 | 20000 nM | –
